The text below walks through data of US10064858B2, “Methods and compositions for treating bacterial infections with iron chelators” (THE UNITED STATES OF AMERICA, AS REPRESENTED BY THE …, priority 2011, dated 2018).

One may read the MIC as the lowest concentration that inhibits growth of the organism.

SMILES strings stand for the structures. Like-named read-outs stand apart in the source and are kept apart here. Bounds are passed on as bounds.

Type in all cases: cell-based
Assay [1] has as its system E. coli. The experiment in a line: MIC, CLSI microdilution (Tables 1 and 6). The settings on record: Escherichia coli, Table 1, read-out: MIC of Iron Chelators. As for the experimental part:
(§1) The minimal inhibitory concentration (MIC) of non-toxic iron chelators was determined against standard strains of MDR bacteria and clinical isolates according to the guidelines of the Clinical and Laboratory Standards Institute (CLSI).
(§2) Individual MICs were determined following the microdilution method recommended by CLSI in cationic-adjusted Mueller-Hinton Broth (CAMHB), or M9 media. […] Tests were performed in triplicate. MIC of iron chelators were determined for noscomial ESKAPE pathogens.
(§3) MIC were determined in CAMHB media as described above in Example 8.
A general note: In broth dilution the organism is exposed to a series of concentrations in liquid medium.

Assay [2] has as its system S. aureus. The experiment in a line: MIC, CLSI microdilution (Tables 1 and 6). To be noted: Staphylococcus aureus, Table 1, read-out: MIC of Iron Chelators. On the procedure:
as §1, §2, §3

The test system of assay [3] is AB5075 a MDR-clinical isolate of A. baumannii. The assay can be described thus: Time-kill assay in CAMHB. The settings on record: for time-kill course of CFU/mL: 24 hours (FIG. 8A); for effect on CFU/ml (time-kill, FIG. 13): 2 and 6 hours. As for the experimental part:
(§4) Reductions in colony forming units (CFU)/mL were determined over time (time-kill assay) after exposure to VK28 and deferiprone (DFP), the two iron chelators that performed best in MIC assays when compared to controls. To better represent the iron content found in the human body, MIC and time-kill assays were also determined in minimal media and tissue culture media. Time-Kill assays were performed as previously described in G. P. Neupane et al., “In vitro time-kill activities of ciprofloxacin alone and in combination with the iron chelator deferasirox against Vibrio vulnificus,” European Journal of Clinical Microbiology and Infectious Diseases, 407-410 (2010); and R. L. White, et al., “Comparison of Three Different In Vitro Methods of Detecting synergy: Time-Kill, Checkerboard, and E test,” Journal of Antimicrobial Agents and Chemotherapy, 1914-1918 (1996). Initial inocula, for example 1×10^6 CFU/mL or 1×10^7 CFU/mL were challenged with iron chelator with and/or without an antibiotic. Cells were allowed to grow in CAMHB at 37° C. for 24 hours. Time-kill results were analyzed by determining the change in log 10 numbers of CFU/ml at 0, 6, and 24 h, compared to counts at 0 h. Antimicrobials were considered bactericidal at the lowest concentration that reduced the size of the original inoculum by >3 log 10 CFU/ml (99.9%) over each of the time periods and were considered bacteriostatic if the inoculum's size was reduced by 0 to <3 log 10 CFU/ml.
In this example, time-kill assays were performed as described in Example 9 using Apo6619 as the iron chelator against AB5075 (MRSN959), the MDR-clinical isolate of A. baumannii. The initial inocula was 1×10^6 CFU/mL, and were challenged with 0.5×MIC, 1×MIC and 2×MIC of Apo6619. Time-kill results were analyzed by determining the change in log 10 numbers of CFU/mL at 0, 2 and 4 hours.
In this example, time-kill assays were performed as described in Example 9 using VK28 or DFP as the iron chelator against AB5075, the MDR-clinical isolate of A. baumannii. The initial inocula was 1×10^6 CFU/mL, and were challenged with 0.5×MIC, 1×MIC and 2×MIC of either VK28 or DFP. Time-kill results were analyzed by determining the change in log 10 numbers of CFU/mL at 2 and 6 hours.

The subject of assay [4] is multi-drug resistant bacterial species. The assay can be described thus: Checkerboard, synergy with rifampin (summary). From the text: Drug interactions were initially evaluated with the “checkerboard” microdilution design, which provided a matrix of all drug combinations assayed in terms of fractions of the previously determined MIC. The checkerboard microdilution design is described in R. J. Tallarida, “Drug Synergism: Its Detection and Applications,” Journal of Pharmacology and Experimental Therapeutics, 865-872 (2001); and in R. L. White, et al., (1996), supra. FIGS. 39A and 39B show the wellplates having different concentrations of iron chelator and antibiotic, as labeled along the x-axis and y-axis.
The checkerboard assay was used to asses other combinations of iron chelators and antibiotics. The fractional inhibitory concentration index (FIC), which was calculated as follows: FIC=(MIC A in combination/MIC A)+(MIC B in combination/MIC B). Interaction was defined as synergistic if the FIC was <1.0, preferably <0.5, no interaction if the FIC was >1.0 and <4.0, and antagonistic if the FIC was >4.0.
The assay was run against the multi-drug resistant bacterial species AB 19606, AB 17978, KP ndm, PA PAO1, PA 27853, EC 35718, and EC 43888. Blank spaces indicate concentrations not tested. […] Against the species PA PAO1 and PA 27853, all the antibiotics except for Ami.

The subject of assay [5] is E. coli EC35218. The assay can be described thus: Time-kill assay in CAMHB. On the procedure: as §4
In this example, time-kill assays were performed as described in Example 9 against different multi-drug resistant bacteria, namely E. coli and MRSA.
In this example, time-kill assays were performed as described in Example 9 using ApoL1 as the iron chelator against two different E. coli strains. […] Time-kill results were analyzed by determining the change in log 10 numbers of CFU/mL at 6 and 24 hours.
In this example, time-kill assays were performed as described in Example 9 using Apo6619 as the iron chelator in combination with Rifampin against E. coli 35718. […] Time-kill results were analyzed by determining the change in log 10 numbers of CFU/mL at 0, 5 and 24 hours.

The subject of assay [6] is multi-drug resistant bacterial species. The experiment in a line: Time kill method, synergy with rifampin (summary). As for the experimental part: as §4
The subject of assay [7] is E. coli. The experiment in a line: MIC in RPMI1640 media (Table 2). On the procedure: (§5) […] […] Tests were performed in triplicate. MIC of iron chelators were determined for noscomial ESKAPE pathogens.
(§6) This media is closer to the iron levels in the human body. MICs are in ug/mL.

In assay [8] the test system is P. aeruginosa. The experiment in a line: MIC in RPMI1640 media (Table 2). To be noted: Pseudomonas aeruginosa. On the procedure: as §5, §6
In assay [9] the test system is Acinetobacter baumannii. The assay can be described thus: MIC in RPMI1640 media (Table 2). As for the experimental part: as §5, §6
In assay [10] the test system is K. pneumonia. The assay can be described thus: MIC in RPMI1640 media (Table 2). The settings on record: Klebsiella pneumoniae. As for the experimental part:
as §5, §6

The mark [11] stands for this setting: ATCC43888, ATCC 43888 (0157:H7).
[12] abbreviates: Escherichia coli, 35718, read-out: MIC of Iron Chelators.
Setting [13] is: Escherichia coli, ATCC43888, ATCC 43888 (0157:H7), read-out: MIC of Iron Chelators.
[14] abbreviates: ATCC27853, ATCC 27853, read-out: MIC of Iron Chelators.
Setting [15] is: PAO1, read-out: MIC of Iron Chelators.
Where [16] appears, read: ATCC17978, ATCC 17978, read-out: MIC of Iron Chelators.
The mark [17] stands for this setting: ATCC19606, ATCC 19606, read-out: MIC of Iron Chelators.
Where [18] appears, read: ATCC700603, ATCC 700603, read-out: MIC of Iron Chelators.
The mark [19] stands for this setting: BAA2146, BAA-2146, read-out: MIC of Iron Chelators.
[20] abbreviates: 1.5 MIC ApoL1 in combination with ¾MIC rifampin, CAMHB.

Regarding `CNC(=O)c1c(O)c(=O)cc(C)n1C1CC1` [Apo6619, 1-cyclopropyl-3-hydroxy-6-methyl-4-oxo-1,4-dihydro-pyridine-2-carboxylic acid methylamide], the MIC in assay [1] (ATCC35218, ATCC 35218) is 250 µg/mL; in assay [1] (setting [11]), 250 µg/mL; in assay [2] (ATCC25923, ATCC 25923) it was over 500 µg/mL; in assay [2] (ATCC 43300 (MRSA)), over 500 µg/mL; in assay [7] (setting [12]), 250 µg/mL; in assay [7] (setting [13]), 250 µg/mL. Further, the minimal inhibitory concentration (MIC) in assay [8] (setting [14]) was over 500 µg/mL; in [8] (setting [15]), 500 µg/mL; in [9] (setting [16]) it was 64 µg/mL; in assay [9] (setting [17]), 125 µg/mL; in assay [10] (setting [18]) it was 500 µg/mL; in assay [10] (setting [19]), 500 µg/mL. Further, the time-kill effect result in assay [3] (0.5×MIC, 1×MIC and 2×MIC, 0, 2 and 4 hours) is listed as “bactericidal (considered bactericidal at the lowest concentration that reduced the size of the original inoculum by >3 log 10 CFU/ml (99.9%))”. Further, the “synergy with rifampin, checkerboard” value in assay [4] is given as “moderate degrees of synergy”. The time kill curves result in assay [5] (E. coli 35718, 1.5×MIC Apo6619 in combination with 0.75×MIC Rifampin, 0, 5 and 24 hours) is reported as “combinational effect”. Moreover, in [6], the “synergy with rifampin, time kill method” value is reported as “strong synergy”.
Regarding `Cc1c(O)c(=O)ccn1C` [ApoL1, 3-hydroxy-1,2-dimethyl-4(1H)-pyridone], the minimum inhibitory concentration (MIC) in assay [1] (ATCC35218, ATCC 35218) was 500 µg/mL; in assay [1] (setting [11]), 500 µg/mL; in [2] (ATCC25923, ATCC 25923) it was over 500 µg/mL; in assay [2] (ATCC 43300 (MRSA)) it was over 500 µg/mL; in assay [7] (setting [12]), 500 µg/mL; in assay [7] (setting [13]), 250 µg/mL. The MIC in assay [8] (setting [14]) worked out at 500 µg/mL; in assay [8] (setting [15]), 125 µg/mL; in assay [9] (setting [16]), 64 µg/mL; in assay [9] (setting [17]) it was 125 µg/mL; in assay [10] (setting [18]), 250 µg/mL; in assay [10] (setting [19]), 250 µg/mL. Besides, the “time-kill course of CFU/mL” value was “reduced level of CFU/ml at 2 and 6 hours but did increase in CFU at 24 hours to levels as seen in the untreated sample” in assay [3] (0.5×MIC, CAMHB); “reduced level of CFU/ml at 2 and 6 hours but did increase in CFU at 24 hours to levels as seen in the untreated sample” in [3] (1×MIC, CAMHB); “did not have a substantial increase in CFU/ml over the 24 hour period” in assay [3] (2×MIC, CAMHB). Besides, the “effect on CFU/ml (time-kill, FIG. 13)” value in assay [3] (1×MIC) is recorded as “slight inhibitory effect”; in [3] (2×MIC) it was “stronger inhibitory effect”. Also, the “synergy with rifampin, checkerboard” value in [4] was “moderate degrees of synergy”. Besides, the “reduction in CFU/mL” value in assay [5] (setting [20]) is “greater than 3 log 10”. Further, the time-kill effect result in [5] (setting [20]) is on record as “bactericidal (considered bactericidal at the lowest concentration that reduced the size of the original inoculum by >3 log 10 CFU/ml (99.9%))”; in assay [5] (1.5 MIC Iron Chelator alone, CAMHB), “bacteriostatic (considered bacteriostatic if the inoculum's size was reduced by 0 to <3 log 10 CFU/ml)”. In [6], the “synergy with rifampin, time kill method” value is “strong synergy”.
For `OCCN1CCN(Cc2ccc(O)c3ncccc23)CC1` [VK28, 5-(4-(2-hydroxyethyl)piperazin-1-ylmethyl)-8-hydroxyquinoline], the minimum inhibitory concentration (MIC) was over 500 µg/mL in [1] (ATCC35218, ATCC 35218); over 500 µg/mL in [1] (setting [11]); 250 µg/mL in assay [2] (ATCC25923, ATCC 25923); 250 µg/mL in assay [2] (ATCC 43300 (MRSA)); 32 µg/mL in assay [7] (setting [12]); 8 µg/mL in assay [7] (setting [13]). The minimal inhibitory concentration (MIC) is 16 µg/mL in assay [8] (setting [14]); 16 µg/mL in assay [8] (setting [15]); 32 µg/mL in [9] (setting [16]); 8 µg/mL in assay [9] (setting [17]); 16 µg/mL in assay [10] (setting [18]); 16 µg/mL in assay [10] (setting [19]). Also, the “effect on CFU/ml (time-kill, FIG. 13)” value in [3] (0.5 MIC), in [3] (1×MIC) and in assay [3] (2×MIC) was “inhibitory effect on the CFU/ml” throughout. In assay [3] (0.5 MIC, CAMHB), the “CFU/mL at 24 hours” value was “about 1×10^9 CFU/mL”. For the same compound, the “time-kill course of CFU/mL” value is “initial decrease in CFU/mL at 2 and 6 hours, but rebounded” in [3] (0.5×MIC, CAMHB); “did not increase in CFU over the 24 hour period” in assay [3] (1×MIC, CAMHB); “decrease in CFU/mL after 2 hours that was sustained through the 24 hour period” in assay [3] (2×MIC, CAMHB). Also, in [4], the “synergy with rifampin, checkerboard” value is listed as “moderate degrees of synergy”. Also, in [5] (1×MIC and 2×MIC VK28, CAMHB), the time-kill effect result is given as “bacteriostatic (considered bacteriostatic if the inoculum's size was reduced by 0 to <3 log 10 CFU/ml)”. Moreover, the “synergy with rifampin, time kill method” value in [6] was “strong synergy”.
